Measured values: patent US5280548A, “Emission based fiber optic sensors for pH and carbon dioxide analysis” (BOC Health Care, Inc., priority 1993, dated 1994)
“Also recorded” adds a separate entry of the source. Where two headings read alike, the source gives them in different places.

What was measured:
[1] = 25° C.; cited from earlier work
[2] = Emission lifetime measurement; format: physicochemical; details: for lifetime (τ): 25° C.
Source text: 1969, 31, 1-13], as a standard.

[3] = for emission yield (Φ): 25° C.
Method: Emission spectra were recorded on either a ISS Greg-200 spectrofluorometer or a single-fiber spectrofluorometer discussed below. Absorption spectra were recorded on a Perkin-Elmer Lambda 5 spectrophotometer. Lifetime measurements were recorded with the ISS Greg-200 spectrofluorometer using excitation by a Coherent 700 Dye Laser with Rhodamine 6G synchronously pumped with a frequency doubled Coherent Antares mode-locked Nd:YAG laser. The mode-locker was driven by a Marconi Instruments 2022a frequency synthesizer locked in phase to another Marconi Instruments 2022a frequency synthesizer which modulated the photomultiplier tubes on the Greg-200 instrument.
Emission yields were corrected for instrument response and measured using tetraphenylporphyrin in benzene, .PHI.=0.11 [Seybold, Paul G.; Gouterman, Martin J. Mol. Spectrosc. 1969, 31, 1-13], as a standard. Lifetime measurements were calibrated with scattered light, .tau.=0. […] The output from the laser was measured before and after the experiment to ensure constant excitation intensity.

[4] = Effect of temperature on emission parameters A and B of the pH dye; format: physicochemical; details: for A (relative emission, lower asymptote of response vs. pH) / B (relative emission intensity, base tautomer / isosbestic point): 650 nm
Method: (§1) The effect of temperature on the parameters describing the pH dye was determined. […] The emission spectra were measured as a function of pH at 20° C., 25° C., 30° C., 37° C., and 45° C. […] The relative emission intensity, B, was defined as the ratio of the emission from the base tautomer at 650 nm to the emission from the isosbestic point. The relative emission, A, was defined as the ratio of the isosbestic point emission to the emission from the acid tautomer at 650 nm. The quantities A and B define the upper and lower asymptotes on the response vs. pH sigmoidal curve. The pKa, A, and B were determined for the series of emission spectra at each temperature by fitting the emission intensity at 650 nm to the theoretical response vs. pH curve using non-linear regression.

Solubility observations = format: physicochemical
Method: The polymers prepared above were soluble in acetone, dioxane, tetrahydrofuran, ethanol, and dimethylacetamide. A concentrated solution of the polymer in one of these solvents was prepared and applied to the distal tip of a methacrylate optical fiber, the tip of which had been prepared by cleaving normal to its longitudinal axis with a fresh scalpel blade. The sensors were allowed to dry overnight before use.

[5] = pKa determination from pH-dependent emission; format: physicochemical
Method: as §1

Absorption spectra = format: physicochemical; details: 25° C.
Method: Absorption spectra were recorded on a Perkin-Elmer Lambda 5 spectrophotometer.

[6] = aqueous solution, 540 nm excitation

Molecule: O=C=O [carbon dioxide]
- pKa1 [1]: 6.35
- pKa2 [1]: 10.33
- solubility in water [1]: 0.759 ml carbon dioxide @ STP/ml water

Molecule: seminaphthorhodaflor-1-carboxylate [SNARF-1C]
- emission lifetime, in words [2]: The emission lifetimes are insensitive to concentration; also recorded: The lifetime of the acid tautomer of SNARF-1C is shorter than that for the base tautomer
- lifetime (τ) ([2]; acid form, Conc. 10e-6 M): .80 ns
- lifetime (τ) ([2]; acid form, Conc. 10e-5 M): .80 ns
- lifetime (τ) ([2]; acid form, Conc. 10e-4 M): .78 ns
- lifetime (τ) ([2]; base form, Conc. 10e-6 M): 1.38 ns
- lifetime (τ) ([2]; base form, Conc. 10e-5 M): 1.41 ns
- lifetime (τ) ([2]; base form, Conc. 10e-4 M): 1.26 ns
- lifetime, acid tautomer ([2]; acid tautomer): 800 psec
- lifetime of acid tautomer, difference from previous measurement ([2]; vs. Whitaker et al. 1991): 200 psec
- emission yield (Φ) ([3]; acid form, Conc. 10e-6 M): .12
- emission yield (Φ) ([3]; acid form, Conc. 10e-5 M): .12
- emission yield (Φ) ([3]; acid form, Conc. 10e-4 M): .018
- emission yield (Φ) ([3]; base form, Conc. 10e-6 M): .2
- emission yield (Φ) ([3]; base form, Conc. 10e-5 M): .22
- emission yield (Φ) ([3]; base form, Conc. 10e-4 M): .082
- emission maximum, acid peak [3, 6]: 590 nm
- emission maximum, base peak [3, 6]: 640 nm
- isosbestic point ([3]; emission spectra as a function of pH): 605 nm
- emission spectra, in words ([3]; shift of spectra): do not differ from the previously published spectra; also recorded: did not shift with temperature
- A and B vs. temperature, in words ([4]; 20-45° C.): independent of temperature
- A (relative emission, lower asymptote of response vs. pH) ([4]; 20° C.): .721 ± .062
- B (relative emission intensity, base tautomer / isosbestic point) ([4]; 20° C.): 5.07 ± .11
- A (relative emission, lower asymptote of response vs. pH) ([4]; 25° C.): .628 ± .061
- B (relative emission intensity, base tautomer / isosbestic point) ([4]; 25° C.): 4.22 ± .10
- A (relative emission, lower asymptote of response vs. pH) ([4]; 30° C.): .678 ± .072
- B (relative emission intensity, base tautomer / isosbestic point) ([4]; 30° C.): 4.95 ± .12
- A (relative emission, lower asymptote of response vs. pH) ([4]; 37° C.): .702 ± .069
- B (relative emission intensity, base tautomer / isosbestic point) ([4]; 37° C.): 4.10 ± .11
- A (relative emission, lower asymptote of response vs. pH) ([4]; 45° C.): .674 ± .127
- B (relative emission intensity, base tautomer / isosbestic point) ([4]; 45° C.): 5.48 ± .19
- solubility, in words (Solubility observations): The potassium salt of the acid was much easier to dissolve
- pKa ([5]; 20° C. (Table 2)): 7.79 ± .03
- pKa ([5]; 25° C. (Table 1)): 7.58 ± 0.04
- pKa ([5]; 25° C. (Table 2)): 7.58 ± .01
- pKa ([5]; 30° C. (Table 2)): 7.57 ± .03
- pKa ([5]; 37° C. (Table 1)): 7.44 ± 0.05
- pKa ([5]; 37° C. (Table 2)): 7.44 ± .04
- pKa ([5]; 45° C. (Table 2)): 7.43 ± .06
- lambda max (Absorption spectra; acid form, Conc. 10e-6 M): 551 nm
- ε (Absorption spectra; acid form, Conc. 10e-6 M): 19920 M⁻¹ cm⁻¹
- lambda max (Absorption spectra; acid form, Conc. 10e-5 M): 553 nm
- ε (Absorption spectra; acid form, Conc. 10e-5 M): 19380 M⁻¹ cm⁻¹
- lambda max (Absorption spectra; acid form, Conc. 10e-4 M): 549 nm
- ε (Absorption spectra; acid form, Conc. 10e-4 M): 12650 M⁻¹ cm⁻¹
- lambda max (Absorption spectra; base form, Conc. 10e-6 M): 577 nm
- ε (Absorption spectra; base form, Conc. 10e-6 M): 38220 M⁻¹ cm⁻¹
- lambda max (Absorption spectra; base form, Conc. 10e-5 M): 576 nm
- ε (Absorption spectra; base form, Conc. 10e-5 M): 37510 M⁻¹ cm⁻¹
- lambda max (Absorption spectra; base form, Conc. 10e-4 M): 572 nm
- ε (Absorption spectra; base form, Conc. 10e-4 M): 27770 M⁻¹ cm⁻¹
